Read-outs that look alike come from different tables or passages of the source.
Legend:
[1] = target: T1, Mcl-1 (myeloid cell leukemia-1) (Homo sapiens, UniProt Q07820); assay: 1H-15N HSQC NMR titration; type: binding
[2] = target: T1, Mcl-1 (myeloid cell leukemia-1); assay: 1H-15N HSQC NMR titration; type: binding; remark: listed apart in the source

T1 sequence (Q07820 172-327): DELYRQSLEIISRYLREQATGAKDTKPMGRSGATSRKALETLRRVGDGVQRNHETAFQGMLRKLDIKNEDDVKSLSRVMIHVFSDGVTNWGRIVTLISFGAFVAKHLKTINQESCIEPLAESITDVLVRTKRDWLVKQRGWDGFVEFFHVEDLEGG

| Kd [1] [µM] | Kd [2] [µM] | Compound |
| --- | --- | --- |
| ~300 | – | O=C(O)c1ccc(-n2nc(-c3ccccc3O)nc2-c2ccccc2O)cc1 [Deferasirox] |
| – | ~1000 | Cc1cccc(Nc2ccncc2S(=O)(=O)NC(=O)NC(C)C)c1 [Torsemide] |

Reference: PMC8688747 (Drug Design, Development and Therapy, 2021)
